Patent publication US20070134202A1, “Cancer gene therapeutic drug” (priority 2003, published 2007)

How the values were obtained:
Assay type in all cases: cell-based
Ovarian cancer cells HEY = experiment: Influence of Fe and ALA on the proliferation inhibitory effect of adenovirus AdE3-1A1.3B (FIG. 15-17)
Experimental: Ovarian cancer cells HEY were cultured in 12-well plate at a rate of 10,000 cells/well and FeSO4 was added at a concentration of 50 μg/ml, 5 μg/ml, 0.5 μg/ml or 0 μg/ml on the following day and the cytolysis type adenovirus AdE3-1A1.3B was added to all wells. The proliferation inhibitory effect of the adenovirus was evaluated by IC50 after five days.
(§1) Next, the ovarian cancer cell line HEY was cultured in a 12-well plate at a rate of 10,000 cells/well and 5-aminolevulinic acid (ALA) was added at a concentration of 50 μg/ml, 5 μg/ml, 0.5 μg/ml or 0 μg/ml on the following day and the cytolysis type adenovirus AdE3-1A1.3B was added to all wells. The proliferation inhibitory effect of the adenovirus was evaluated by IC50 after five days.
as §1, with “Furthermore,” for “Next,”, “FeSO4” for “5-aminolevulinic acid (ALA)”, “day. In addition,” for “day and”, “AdE3-1A1.3B and 50 μg/ml of 5-aminolevulinic acid (ALA) were added to each well. Only the adenovirus” for “AdE3-1A1.3B”, “a control.” for “all wells.”

cancer cells [1] = experiment: PFU assay of adenovirus production
Excerpt: (§2) That is, ALA and Fe can enhance antitumor effect, because they can increase the infectivity of adenovirus to cancer cells and the amount of virus production within the cells.

cancer cells [2] = experiment: β-gal assay of adenovirus infectivity
Excerpt: as §2

Row | Compound | proliferation inhibitory effect to that of only adenovirus administration (Ovarian cancer cells HEY; 0.5 μg/ml of FeSO4, 50 μg/ml of ALA and AdE3-1A1.3B, after five days) | proliferation inhibitory effect to that of only adenovirus administration (Ovarian cancer cells HEY; 5 μg/ml of FeSO4, 50 μg/ml of ALA and AdE3-1A1.3B, after five days) | proliferation inhibitory effect to that of only adenovirus administration (Ovarian cancer cells HEY; 5 μg/ml of FeSO4 and AdE3-1A1.3B, IC50 (vp/cell) after five days) | proliferation inhibitory effect to that of only adenovirus administration (Ovarian cancer cells HEY; 50 μg/ml of FeSO4, 50 μg/ml of ALA and AdE3-1A1.3B, after five days) | proliferation inhibitory effect to that of only adenovirus administration (Ovarian cancer cells HEY; 50 μg/ml of FeSO4 and AdE3-1A1.3B, IC50 (vp/cell) after five days) | amount of adenovirus production (cancer cells [1]) | infectivity of adenovirus (cancer cells [2]) | proliferation inhibitory effect to that of only adenovirus administration (Ovarian cancer cells HEY; 50 μg/ml of ALA and AdE3-1A1.3B, IC50 (vp/cell) after five days)
1 | ferrous sulfate [FeSO4] | about 200 fold | about 700 fold | about 8 fold | about 1,000 fold | about 20 fold | – | – | –
2 | [Fe] [Fe] | – | – | – | – | – | increased amount of adenovirus production | increased infectivity of adenovirus | –
3 | NCC(=O)CCC(=O)O [ALA, 5-aminolevulinic acid, reference compound] | – | – | – | – | – | increased amount of adenovirus production | increased infectivity of adenovirus | about 100 fold
